# In patent US12679878B2, “CRF2 receptor agonists and their use in therapy” (SANOFI, priority 2020, dated 2026):
# pEC50: −log10 of the molar value. Like-named read-outs stand apart in the source and are kept apart here. Starred links: 1 amine or outer side, 2 acyl side, 3 side chain; linkers in the order of their positions; H or OH if unused. Non-standard residues stand in square brackets, D forms with d. Residues, ends and D or L forms follow the SMILES beside them. Groups on a side chain read outwards from the residue. *: point of attachment. C16 diacid = O=C(O)CCCCCCCCCCCCCCC(=O)*; γGlu = O=C(O)[C@H](CCC(=O)[*:2])N[*:1]
# Tests used:
# human CRF2α receptor = target: T1, human CRF2α receptor (Homo sapiens, UniProt Q13324); test: cAMP agonism at human CRF2α receptor in TeloHEAC cells, FA modified peptides (Example 19.9); type: cell-based; settings: 0% HSA, relative to urocortin 2
# T1 construct: expressed in transfected cells; host or cells: TeloHEAC
# T1 sequence (Q13324 1-411): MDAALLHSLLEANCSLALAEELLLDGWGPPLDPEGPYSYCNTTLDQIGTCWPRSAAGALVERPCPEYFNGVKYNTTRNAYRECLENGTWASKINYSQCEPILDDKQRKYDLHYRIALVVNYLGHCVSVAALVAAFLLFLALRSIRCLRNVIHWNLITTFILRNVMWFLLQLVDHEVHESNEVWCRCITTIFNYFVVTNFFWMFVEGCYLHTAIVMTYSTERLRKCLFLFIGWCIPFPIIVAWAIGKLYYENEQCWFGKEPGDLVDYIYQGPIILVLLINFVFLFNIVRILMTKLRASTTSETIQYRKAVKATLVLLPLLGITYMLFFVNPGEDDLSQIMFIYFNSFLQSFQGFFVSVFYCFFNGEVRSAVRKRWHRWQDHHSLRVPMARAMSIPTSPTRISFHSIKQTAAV
# Procedure, shortened: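 Efficacy and EC50 are referenced to 100 nM urocortin 2 as 100%, with cAMP measured as the 665/620 nm HTRF ratio after 1 h at room temperature. Compounds (0.5 mM DMSO stock, 16 twofold dilutions) acted 30 min at 37 °C on CRF2α-expressing TeloHEAC cells, buffer containing IBMX and 0% or 0.2% HSA.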
# CRF1R receptor = target: T2, CRF1R receptor (Homo sapiens, UniProt P34998); test: cAMP activity at anti-target CRF1R, CHO-K1 cell line clone 2 (Example 19.10); type: cell-based; settings: for EC50: 0% HSA, read-out: EC50 [nM] 0% HSA; for EC50 / Emax: CRF1R CHO-K1 clone 2; for Emax: 100% = Sauvagine at 100 nM; for CRF1/CRF2 ratio: ratio of CRF1 EC50 to CRF2 EC50
# T2 construct: host or cells: CHO-K1 clone 2
# T2 sequence (P34998 24-415): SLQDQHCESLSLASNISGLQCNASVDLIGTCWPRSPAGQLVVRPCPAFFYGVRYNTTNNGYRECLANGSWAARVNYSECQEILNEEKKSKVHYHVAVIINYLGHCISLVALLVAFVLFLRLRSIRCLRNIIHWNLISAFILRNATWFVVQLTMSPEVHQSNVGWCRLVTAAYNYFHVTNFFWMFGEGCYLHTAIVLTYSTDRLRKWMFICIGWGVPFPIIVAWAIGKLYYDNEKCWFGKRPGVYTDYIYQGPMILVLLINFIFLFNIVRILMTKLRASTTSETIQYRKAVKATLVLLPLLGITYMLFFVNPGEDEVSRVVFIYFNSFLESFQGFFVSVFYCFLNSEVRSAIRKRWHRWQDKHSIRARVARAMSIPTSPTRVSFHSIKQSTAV
# Procedure, shortened: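 The cAMP read-out used the same protocol as the previous assay, except that Sauvagine at 100 nM set the 100% activation control. Cells were CHO-K1 clone 2 overexpressing CRF1R, cultured in F12 medium with 10% FBS and G418 and stored frozen until use.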
# [1] = In vitro plasma stability, rat plasma (Example 19.11); type: in vitro ADME, Sprague Dawley rats; set-up: remaining at 2 h: dose or concentration left out as unconfirmed; settings: male, Sprague Dawley, rat, plasma, 37° C.
# Procedure: (§1) In vitro plasma metabolic stability was studied in male Sprague Dawley rats and human. Test compound were incubated […] for 2 hours at 37° C. At each time point (0, 0.25, 1 and 2 h), samples were prepared for analysis by means of a single step protein precipitation technique by adding 150 μL of ethanol, 0.1% formic acid to 50 μL aliquots of plasma. Samples were mixed by vortex for homogeneity and then subjected to centrifugation at 14000 rpm for 15 min. The supernatant (100 μL) was collected, diluted with 100 μL of water, 0.1% formic acid and analyzed by LC-HRMS (TripleTOF 6600+, AB Sciex). For each test compound, the area ratios at each time point were compared to the 0 h area ratio and converted to a percentage remaining.
# [2] = In vitro plasma stability, human plasma (Example 19.11); type: in vitro ADME; set-up: dose or concentration left out as unconfirmed; settings: 37° C.
# Procedure: as §1
# [3] = Buffer solubility by LC-UV, pH 7.4 phosphate and pH 4.5 acetate (Example 19.11); type: physicochemical; settings: target 10 mg/mL
# Procedure, shortened: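 Powders dissolved at a target 10 mg/mL in 100 mM phosphate pH 7.4 or 100 mM acetate pH 4.5, held 1 h at room temperature, then centrifuged. Diluted supernatant analysed by LC-UV; solubility from peak area against the same compound at 0.5 mg/ml in water:acetonitrile 1:1 with 0.1% formic acid.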
# [4] = Chemical stability as % loss by LC-UV, 28 days 40° C. vs 5° C. (Example 19.11); type: physicochemical
# Procedure: As for example 15 above, also the chemical stability of representative examples of these FA modified peptides has been assessed, using LC-UV instead of light scattering. Solubility and chemical stability were studied in 100 mM phosphate buffer (pH 7.4) and 100 mM acetate buffer (pH 4.5). Test compound powders were dissolved in both buffers at a target concentration of 10 mg/mL and incubated for 1 hour at room temperature. After centrifugation at 2500 rcf for 15 minutes, […] of supernatant was diluted with […] of the incubation buffer and analyzed by LC-UV (Acquity UPLC-DAD, Waters). Solubility was calculated by comparing the peak area of the test compound in the buffer sample with the peak area of the same compound dissolved at 0.5 mg/ml in water:acetonitrile 1:1, 0.1% formic acid.
# From the centrifuged supernatant, two additional […] aliquots were collected and diluted with […] of incubation buffer. One aliquot was stored at 5° C., while the other was stored at 40° C. After 28 days, the samples were analyzed by LC-UV. Chemical stability was calculated as % loss using the following equations: • Chemical stability (as % loss)=[(purity after 28 days at 5° C.)−(purity after 28 days at 40° C.)]×100/(purity after 28 days at 5° C.) % purity=[(peak area compound)×100/(total peak area)]
# [5] = pH 7.4, 100 mM phosphate buffer
Compound,EC50 (human CRF2α receptor) [nM],EC50 (CRF1R receptor) [nM],Emax (CRF1R receptor) [%],"pEC50 (CRF1R receptor; Table 20 side-to-side comparison, read-out: CRF1 EC50)",CRF1/CRF2 ratio (CRF1R receptor),remaining at 2 h [1] [%],remaining at 2 h [2] [%],"solubility at 1 h ([3]; pH 4.5, 100 mM acetate buffer) [µg/mL]","solubility at 1 h [3, 5] [µg/mL]",% loss (chemical stability) ([4]; pH 4.5) [%],% loss (chemical stability) ([4]; pH 7.4) [%]
CC[C@H](C)[C@H](N)C(=O)N[C@H](C(=O)N[C@@H](CC(C)C)C(=O)N[C@@H](CO)C(=O)N[C@@H](CC(C)C)C(=O)N[C@@H](CC(=O)O)C(=O)N[C@@H](C(=O)N1CCC[C@H]1C(=O)N[C@H](C(=O)N[C@@H](CCCCN)C(=O)N[C@@H](CC(C)C)C(=O)N[C@@H](CCCCNC(=O)CC[C@H](NC(=O)CCCCCCCCCCCCCCC(=O)O)C(=O)O)C(=O)N[C@@H](CCC(N)=O)C(=O)N[C@H](C(=O)N[C@@H](CC(C)C)C(=O)N[C@@H](CC(C)C)C(=O)N[C@@H](CCCCN)C(=O)N[C@@H](CCC(N)=O)C(=O)N[C@@H](CCC(=O)O)C(=O)N[C@@H](CCCNC(=N)N)C(=O)N[C@@H](CCC(N)=O)C(=O)N[C@@H](CCCCN)C(=O)N[C@@H](CCCCN)C(=O)N[C@@H](CCC(N)=O)C(=O)N[C@@H](CCCNC(=N)N)C(=O)N[C@@H](CCC(=O)O)C(=O)N[C@@H](CCC(N)=O)C(=O)N[C@@H](C)C(=O)N[C@@H](CCC(=O)O)C(=O)N[C@@H](CCCCN)C(=O)N[C@@H](CC(N)=O)C(=O)N[C@@H](CCCCN)C(=O)N[C@@H](CCC(N)=O)C(=O)N[C@H](C(=O)N[C@@H](CC(C)C)C(=O)N[C@@H](CCC(=O)O)C(=O)N[C@@H](CCC(N)=O)C(=O)N[C@H](C(N)=O)C(C)C)[C@@H](C)CC)[C@@H](C)CC)[C@@H](C)CC)C(C)C)C(C)C [compound 190] (H-IVLSLD[dV]PIKLK([γGlu-C16 diacid])QILLKQERQKKQREQAEKNKQILEQV-NH2; N-terminus assumed),2.47,> 100,12,< 7.00,>500,92,100,8500,8500,0,35
CC[C@H](C)[C@H](N)C(=O)N[C@H](C(=O)N[C@@H](CC(C)C)C(=O)N[C@@H](CO)C(=O)N[C@@H](CC(C)C)C(=O)N[C@@H](CC(=O)O)C(=O)N[C@@H](C(=O)N1CCC[C@H]1C(=O)N[C@H](C(=O)N[C@@H](CCCCN)C(=O)N[C@@H](CC(C)C)C(=O)N[C@@H](CCCCNC(=O)CC[C@H](NC(=O)CCCCCCCCCCCCCCC(=O)O)C(=O)O)C(=O)N[C@@H](CCC(N)=O)C(=O)N[C@H](C(=O)N[C@@H](CC(C)C)C(=O)N[C@@H](CC(C)C)C(=O)N[C@@H](CCCCN)C(=O)N[C@@H](CCC(N)=O)C(=O)N[C@@H](CCC(=O)O)C(=O)N[C@@H](CCCNC(=N)N)C(=O)N[C@@H](CCC(N)=O)C(=O)N[C@@H](CCCCN)C(=O)N[C@@H](CCCCN)C(=O)N[C@@H](CCC(N)=O)C(=O)N[C@@H](CCCNC(=N)N)C(=O)N[C@@H](CCC(=O)O)C(=O)N[C@@H](CCCCN)C(=O)N[C@@H](C)C(=O)N[C@@H](CCC(=O)O)C(=O)N[C@@H](CCCCN)C(=O)N[C@@H](CC(N)=O)C(=O)N[C@@H](CCCCN)C(=O)N[C@@H](CCC(N)=O)C(=O)N[C@H](C(=O)N[C@@H](CC(C)C)C(=O)N[C@@H](C)C(=O)N[C@@H](CCC(N)=O)C(=O)N[C@H](C(N)=O)C(C)C)[C@@H](C)CC)[C@@H](C)CC)[C@@H](C)CC)C(C)C)C(C)C [compound 191] (H-IVLSLD[dV]PIKLK([γGlu-C16 diacid])QILLKQERQKKQREKAEKNKQILAQV-NH2),2.68,> 100,12.5,–,–,85,96,8500,9000,0,54
CC[C@H](C)[C@H](N)C(=O)N[C@H](C(=O)N[C@@H](CC(C)C)C(=O)N[C@@H](CO)C(=O)N[C@@H](CC(C)C)C(=O)N[C@@H](CC(=O)O)C(=O)N[C@@H](C(=O)N1CCC[C@H]1C(=O)N[C@H](C(=O)N[C@@H](CCCCN)C(=O)N[C@@H](CC(C)C)C(=O)N[C@@H](CCCCNC(=O)CC[C@H](NC(=O)CCCCCCCCCCCCCCC(=O)O)C(=O)O)C(=O)N[C@@H](CCC(N)=O)C(=O)N[C@H](C(=O)N[C@@H](CC(C)C)C(=O)N[C@@H](CC(C)C)C(=O)N[C@@H](CCCCN)C(=O)N[C@@H](CCC(N)=O)C(=O)N[C@@H](CCC(=O)O)C(=O)N[C@@H](CCCNC(=N)N)C(=O)N[C@@H](CCC(N)=O)C(=O)N[C@@H](CCCCN)C(=O)N[C@@H](CCCCN)C(=O)N[C@@H](CCC(N)=O)C(=O)N[C@@H](CCCNC(=N)N)C(=O)N[C@@H](CCC(N)=O)C(=O)N[C@@H](CCC(N)=O)C(=O)N[C@@H](C)C(=O)N[C@@H](CCC(=O)O)C(=O)N[C@@H](CCCCN)C(=O)N[C@@H](CC(N)=O)C(=O)N[C@@H](CCCCN)C(=O)N[C@@H](CCC(N)=O)C(=O)N[C@H](C(=O)N[C@@H](CC(C)C)C(=O)N[C@@H](C)C(=O)N[C@@H](CCC(N)=O)C(=O)N[C@H](C(N)=O)C(C)C)[C@@H](C)CC)[C@@H](C)CC)[C@@H](C)CC)C(C)C)C(C)C [compound 192] (H-IVLSLD[dV]PIKLK([γGlu-C16 diacid])QILLKQERQKKQRQQAEKNKQILAQV-NH2; N-terminus assumed),0.83,–,–,–,68,109,95,8400,7900,0,49
